The source of these data is patent publication US20240408169A1 (priority 2023, published 2024).

In general, IC50 refers to the midpoint of a concentration-inhibition curve. Usually GI50 stands for the concentration at which growth is held to half of that of the control.

For assay [1], the target named is T1, CyclinE1/CDK2 (Homo sapiens, UniProt P24864).
T1 construct: purchased Eurofins, discovery 14-475
Briefly: Fluorescence Polarization (FP) competitive binding assay, Cyclin E1/Cdk2.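 Further: readings taken after two-hour equilibration at room temperature in HEPES buffer with NaCl, DTT, NP-40 and BSA, IC50 fitted from eight-concentration serial dilution series.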 To be noted: 10 nM Cyclin E1/Cdk2, 2 nM FAM probe; average of 2-3 independent experiments; read-out: Cyclin E FP IC50. (In fluorescence polarisation assays a small probe gives low polarisation when free and higher when bound to something large.)

In assay [2] the test system is OVCAR3 cells. In words: MTT proliferation assay, OVCAR3.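 Further: compound given as an 8- or 10-point series, one day after plating, with exposure covering roughly 3-4 cell doublings.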 To be noted: 5 days compound exposure, 1:3 serial dilution starting at 10 μM. It counts as cell-based.
The target of assay [3] is T2, CyclinA2/CDK2 (Homo sapiens, UniProt P20248).
T2 construct: purchased CRELUX Protein Services
Briefly: Fluorescence Polarization (FP) competitive binding assay, Cyclin A2/Cdk2.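 Further: plates equilibrated two hours at room temperature before polarization reading, IC50 fitted from eight-concentration compound titration curves.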 To be noted: 8 nM Cyclin A2/Cdk2, 2 nM FAM probe; average of 2-3 independent experiments; read-out: Cyclin A FP IC50.

For assay [4], the system named is NCI-H1048 cells. In words: MTT proliferation assay, NCI-H1048.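 Further: Dose-response in 96-well plates over 8 or 10 concentration points, with exposure spanning 3-4 cell doublings.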 It counts as cell-based. To be noted: 5 days compound exposure, 1:3 serial dilution starting at 10 μM.
The target in assay [5] is T3, CyclinB1/CDK1 (Homo sapiens, UniProt P14635).
T3 construct: purchased Eurofins, discovery 14-450
In words: Fluorescence Polarization (FP) competitive binding assay, Cyclin B1/Cdk1.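 Further: fluorescence polarization read after equilibration at room temperature, with IC50 taken from serially diluted dose-response curves.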 To be noted: 10 nM Cyclin B1/Cdk1, 2 nM FAM probe; average of 2-3 independent experiments; read-out: Cyclin B FP IC50.

Each structure is given as a SMILES string. *1 amine or outer side, *2 acyl side, *3 side chain or, on linkers, in order; H or OH if unused. Where a SMILES comes first, the peptide text is derived from it. Bridges are numbered along the chain shown (N, C = ends). [ ]: non-standard residue; d: D form. The star is where a group is joined. X128 = CC(C)C(=O)N1C2C=C(c3ccc(F)cc3C[C@@H](C(=O)[*:2])N(C)[*:1])CC1COC2; NMePhe(5-Cl,2-O(2-Pym)) = CN[C@@H](Cc1cc(Cl)ccc1Oc1ncccn1)C(=O)O; NMehhhLys(Me) = CN([C@@H](CCCCCCCN(C)[*:3])C(=O)[*:2])[*:1]; X44 = Cc1nnc(-c2ccc(Cl)cc2C[C@@H](C(=O)[*:2])N(C)[*:1])o1; NMe(hhhLys) = CN([C@@H](CCCCCCCN[*:3])C(=O)[*:2])[*:1]; Cyclobutanecarbonyl(1-CF3) = O=C(C1(C(F)(F)F)CCC1)*; cBuCO(3,3-F2-1-CF3) = O=C(C1(C(F)(F)F)CC(F)(F)C1)*; Pro(trans-4-F) = O=C(O)[C@@H]1C[C@@H](F)CN1; Gly(cPr) = N[C@H](C(=O)O)C1CC1

As for `CC(C)C[C@@H]1NC(=O)[C@@H](N(C)C(=O)[C@@H](NC(=O)[C@@H]2C[C@@H](F)CN2C(=O)C2(C(F)(F)F)CC(F)(F)C2)C2CC2)CCCCCCCN(C)C(=O)[C@H](Cc2cc(F)ccc2C2=CC3COCC(C2)N3C(=O)C(C)C)N(C)C1=O` (stereo partly drawn) [Example 151] ({cBuCO(3,3-F2-1-CF3)}-[Pro(trans-4-F)][Gly(cPr)][NMehhhLys(Me)]L[X128]; lactam 3-C), the figures for the IC50 in assay [1], in assay [3] and in assay [5] were 220 nM, 20 nM and 20 nM, respectively. Also, the GI50 in assay [2] and in assay [4] was 10 nM in each case.
For `CC(C)C[C@@H]1NC(=O)[C@@H](N(C)C(=O)[C@@H](NC(=O)[C@@H]2C[C@@H](F)CN2C(=O)C2(C(F)(F)F)CC(F)(F)C2)C2CC2)CC=CCCCCNC(=O)[C@H](Cc2cc(Cl)ccc2Oc2ncccn2)N(C)C1=O` [Example 152], the values for the IC50 in assay [1], in assay [3] and in assay [5] were 1900 nM, 1020 nM and 20 nM, respectively. The results for the GI50 in assay [2] and in assay [4] were 450 nM and 500 nM, respectively.
On to `CC(C)C[C@@H]1NC(=O)[C@@H](N(C)C(=O)[C@@H](NC(=O)[C@@H]2C[C@@H](F)CN2C(=O)C2(C(F)(F)F)CC(F)(F)C2)C2CC2)CC=CCCCCN(C)C(=O)[C@H](Cc2cc(Cl)ccc2Oc2ncccn2)N(C)C1=O` [Example 153], for which the values for the IC50 in assay [1], in assay [3] and in assay [5] were 1000 nM, 470 nM and 20 nM, respectively. Besides, the figures for the GI50 in assay [2] and in assay [4] were 140 nM and 110 nM, respectively.
Turning to `CC(C)C[C@@H]1NC(=O)[C@@H](N(C)C(=O)[C@@H](NC(=O)[C@@H]2C[C@@H](F)CN2C(=O)C2(C(F)(F)F)CC(F)(F)C2)C2CC2)CCCCCCCNC(=O)[C@H](Cc2cc(Cl)ccc2Oc2ncccn2)N(C)C1=O` [Example 154] ({cBuCO(3,3-F2-1-CF3)}-[Pro(trans-4-F)][Gly(cPr)][NMe(hhhLys)]L[NMePhe(5-Cl,2-O(2-Pym))]; lactam 3-C), the IC50 turned out to be 480 nM in assay [1], 150 nM in assay [3] and 20 nM in assay [5]. For the same compound, the GI50 in assay [2] and in assay [4] was 20 nM each time.
Take `CC(C)C[C@@H]1NC(=O)[C@@H](N(C)C(=O)[C@@H](NC(=O)[C@@H]2C[C@@H](F)CN2C(=O)C2(C(F)(F)F)CC(F)(F)C2)C2CC2)CCCCCCCN(C)C(=O)[C@H](Cc2cc(Cl)ccc2Oc2ncccn2)N(C)C1=O` [Example 155] ({cBuCO(3,3-F2-1-CF3)}-[Pro(trans-4-F)][Gly(cPr)][NMehhhLys(Me)]L[NMePhe(5-Cl,2-O(2-Pym))]; lactam 3-C): the IC50 in assay [1] was determined as 410 nM; in assay [3], 100 nM; in assay [5], 20 nM. Also, the results for the GI50 in assay [2] and in assay [4] were 20 nM and 10 nM, respectively.
`CC(C)C[C@@H]1NC(=O)[C@@H](N(C)C(=O)[C@@H](NC(=O)[C@@H]2C[C@@H](F)CN2C(=O)C2(C(F)(F)F)CCC2)C2CC2)CC=CCCCCN(C)C(=O)[C@H](Cc2cc(Cl)ccc2Oc2ncccn2)N(C)C1=O` [Example 157]: the results for the IC50 in assay [1], in assay [3] and in assay [5] were 410 nM, 360 nM and 20 nM, respectively. Moreover, the GI50 was determined as 140 nM in assay [2] and 80 nM in assay [4].
Turning to `CC(C)C[C@@H]1NC(=O)[C@@H](N(C)C(=O)[C@@H](NC(=O)[C@@H]2C[C@@H](F)CN2C(=O)C2(C(F)(F)F)CCC2)C2CC2)CCCCCCCNC(=O)[C@H](Cc2cc(Cl)ccc2Oc2ncccn2)N(C)C1=O` [Example 158] ({Cyclobutanecarbonyl(1-CF3)}-[Pro(trans-4-F)][Gly(cPr)][NMe(hhhLys)]L[NMePhe(5-Cl,2-O(2-Pym))]; lactam 3-C), the IC50 in assay [1] stood at 210 nM; in assay [3], 100 nM; in assay [5] it was 20 nM. Besides, the GI50 in assay [2] and in assay [4] was 20 nM each time.
As for `Cc1nnc(-c2ccc(Cl)cc2C[C@H]2C(=O)NCCCCCCC[C@H](N(C)C(=O)[C@@H](NC(=O)[C@@H]3C[C@@H](F)CN3C(=O)C3(C(F)(F)F)CCC3)C3CC3)C(=O)N[C@@H](CC(C)C)C(=O)N2C)o1` [Example 161] ({Cyclobutanecarbonyl(1-CF3)}-[Pro(trans-4-F)][Gly(cPr)][NMe(hhhLys)]L[X44]; lactam 3-C), the values for the IC50 in assay [1], in assay [3] and in assay [5] were 120 nM, 20 nM and 20 nM, respectively. The GI50 in assay [2] and in assay [4] was 20 nM throughout.
